# Measured values: patent publication US10202361B2, “Pyridazinones as herbicides” (E I DU PONT DE NEMOURS AND COMPANY, priority 2014, dated 2019)
# Like-named read-outs stand apart in the source and are kept apart here.
# Key:
# Format in all cases: in vivo
# [1] = system: barnyardgrass (Echinochloa crus-galli); test: Test A pre-/postemergence greenhouse herbicide test; conditions: Echinochloa crus-galli, 240 h, 0 to 100 scale (0 no effect, 100 complete control), approx. 10 d, read-out: Plant response rating, Barnyardgrass; for pest or weed control at 125 g/ha: 125 g ai/ha; for pest or weed control at 500 g/ha: 500 g ai/ha
# Procedure, shortened: (§1)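 Injury was scored visually on a 0 to 100 scale, where 0 meant no effect and 100 complete control, relative to untreated plants after about 10 d in the greenhouse. Preemergence treatment was a directed soil spray on seeded loam–sand; postemergence spray went onto one- to two-leaf plants.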
# corn (Zea mays) = test: as above; conditions: Zea mays, 240 h, 0 to 100 scale (0 no effect, 100 complete control), approx. 10 d; for Corn plant response rating (crop injury, 0 = no effect, 100 = complete kill) at 125 g/ha: 125 g ai/ha; for Corn plant response rating (crop injury, 0 = no effect, 100 = complete kill) at 500 g/ha: 500 g ai/ha
# Procedure, shortened: as §1
# [2] = system: crabgrass, Large (large crabgrass, Digitaria sanguinalis); test: as above; conditions: Digitaria sanguinalis, 240 h, 0 to 100 scale (0 no effect, 100 complete control), approx. 10 d, read-out: Plant response rating, Crabgrass, Large; for pest or weed control at 125 g/ha: 125 g ai/ha; for pest or weed control at 500 g/ha: 500 g ai/ha
# Procedure, shortened: as §1
# [3] = system: foxtail, giant (giant foxtail, Setaria faberii); test: as above; conditions: Setaria faberi, 240 h, 0 to 100 scale (0 no effect, 100 complete control), approx. 10 d, read-out: Plant response rating, Foxtail, Giant; for pest or weed control at 125 g/ha: 125 g ai/ha; for pest or weed control at 500 g/ha: 500 g ai/ha
# Procedure, shortened: as §1
# [4] = system: pigweed (Amaranthus retroflexus); test: as above; conditions: Amaranthus retroflexus, 240 h, 0 to 100 scale (0 no effect, 100 complete control), approx. 10 d, read-out: Plant response rating, Pigweed; for pest or weed control at 125 g/ha: 125 g ai/ha; for pest or weed control at 500 g/ha: 500 g ai/ha
# Procedure, shortened: as §1
# [5] = system: velvetleaf (Abutilon theophrasti); test: as above; conditions: Abutilon theophrasti, 240 h, 0 to 100 scale (0 no effect, 100 complete control), approx. 10 d, read-out: Plant response rating, Velvetleaf; for pest or weed control at 125 g/ha: 125 g ai/ha; for pest or weed control at 500 g/ha: 500 g ai/ha
# Procedure, shortened: as §1
# [6] = system: wheat (Triticum aestivum); test: as above; conditions: Triticum aestivum, 240 h, 0 to 100 scale (0 no effect, 100 complete control), approx. 10 d, read-out: Plant response rating, Wheat; for plant injury at 125 g/ha: 125 g ai/ha; for plant injury at 500 g/ha: 500 g ai/ha
# Procedure, shortened: as §1
# [7] = system: wheat (winter wheat, Triticum aestivum); test: Test C pre-/postemergence greenhouse herbicide test; conditions: Triticum aestivum, Wheat, read-out: Plant response rating; for plant injury at 62 g/ha: 62 g ai/ha; for plant injury at 125 g/ha: 125 g ai/ha; for plant injury at 250 g/ha: 250 g ai/ha
# Procedure, shortened: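 Visual ratings, 0 = no effect, 100 = complete control, vs untreated controls at 13–15 d. Pre: seeds in loam/sand. Post: 2–18 cm plants (1–4 leaf), peat/vermiculite mix. Surfactant-containing solvent formulation; greenhouse.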
# [8] = system: morningglory (Ipomoea spp.); test: Test A pre-/postemergence greenhouse herbicide test; conditions: Ipomoea, 240 h, 0 to 100 scale (0 no effect, 100 complete control), approx. 10 d, read-out: Plant response rating, Morningglory; for pest or weed control at 125 g/ha: 125 g ai/ha; for pest or weed control at 500 g/ha: 500 g ai/ha
# Procedure, shortened: as §1
Structure (SMILES),"pest or weed control at 125 g/ha ([1]; post-emergence, Postemergence)","pest or weed control at 500 g/ha ([1]; post-emergence, Postemergence)","pest or weed control at 125 g/ha ([1]; pre-emergence, Preemergence)","pest or weed control at 500 g/ha ([1]; pre-emergence, Preemergence)","Corn plant response rating (crop injury, 0 = no effect, 100 = complete kill) at 125 g/ha (corn (Zea mays); post-emergence, Postemergence)","Corn plant response rating (crop injury, 0 = no effect, 100 = complete kill) at 500 g/ha (corn (Zea mays); post-emergence, Postemergence)","Corn plant response rating (crop injury, 0 = no effect, 100 = complete kill) at 125 g/ha (corn (Zea mays); pre-emergence, Preemergence)","Corn plant response rating (crop injury, 0 = no effect, 100 = complete kill) at 500 g/ha (corn (Zea mays); pre-emergence, Preemergence)","pest or weed control at 125 g/ha ([2]; post-emergence, Postemergence)","pest or weed control at 500 g/ha ([2]; post-emergence, Postemergence)","pest or weed control at 125 g/ha ([2]; pre-emergence, Preemergence)","pest or weed control at 500 g/ha ([2]; pre-emergence, Preemergence)","pest or weed control at 125 g/ha ([3]; post-emergence, Postemergence)","pest or weed control at 500 g/ha ([3]; post-emergence, Postemergence)","pest or weed control at 125 g/ha ([3]; pre-emergence, Preemergence)","pest or weed control at 500 g/ha ([3]; pre-emergence, Preemergence)","pest or weed control at 125 g/ha ([4]; post-emergence, Postemergence)","pest or weed control at 500 g/ha ([4]; post-emergence, Postemergence)","pest or weed control at 125 g/ha ([4]; pre-emergence, Preemergence)","pest or weed control at 500 g/ha ([4]; pre-emergence, Preemergence)",other results
"Cc1cc(=O)n(-c2ccc(F)cc2)nc1Cc1ccnc(C(F)(F)F)c1 [Compound 1, 2-(4-fluorophenyl)-5-methyl-6-[[2-(trifluoromethyl)-4-pyridinyl]methyl]-3(2H)-pyridazinone]",100%,100%,100%,100%,90%,90%,0%,90%,90%,100%,100%,100%,90%,100%,100%,100%,100%,100%,100%,100%,"pest or weed control at 125 g/ha ([5]; post-emergence, Postemergence): 40%; pest or weed control at 500 g/ha ([5]; post-emergence, Postemergence): 100%; pest or weed control at 125 g/ha ([5]; pre-emergence, Preemergence): 0%; pest or weed control at 500 g/ha ([5]; pre-emergence, Preemergence): 90%; plant injury at 125 g/ha ([6]; post-emergence, Postemergence): 60%; plant injury at 500 g/ha ([6]; post-emergence, Postemergence): 90%; plant injury at 125 g/ha ([6]; pre-emergence, Preemergence): 0%; plant injury at 500 g/ha ([6]; pre-emergence, Preemergence): 90%; plant injury at 31 g/ha ([7]; post-emergence, Postemergence, 31 g ai/ha): 0%; plant injury at 62 g/ha ([7]; post-emergence, Postemergence): 5%; plant injury at 125 g/ha ([7]; post-emergence, Postemergence): 5%; plant injury at 250 g/ha ([7]; post-emergence, Postemergence): 5%; plant injury at 62 g/ha ([7]; pre-emergence, Preemergence): 5%; plant injury at 125 g/ha ([7]; pre-emergence, Preemergence): 15%; plant injury at 250 g/ha ([7]; pre-emergence, Preemergence): 70%"
"CCOc1cc(=O)n(-c2ccc(F)cc2)nc1C(=O)c1ccnc(C(F)(F)F)c1 [Compound 22, 5-ethoxy-2-(4-fluorophenyl)-6-[[2-(trifluoromethyl)-4-pyridinyl]carbonyl]-3(2H)-pyridazinone]",20%,100%,20%,80%,50%,90%,0%,20%,60%,100%,100%,100%,60%,100%,90%,100%,100%,100%,100%,100%,"pest or weed control at 125 g/ha ([8]; post-emergence, Postemergence): 40%; pest or weed control at 500 g/ha ([8]; post-emergence, Postemergence): 100%; pest or weed control at 125 g/ha ([8]; pre-emergence, Preemergence): 30%; pest or weed control at 500 g/ha ([8]; pre-emergence, Preemergence): 100%; pest or weed control at 125 g/ha ([5]; post-emergence, Postemergence): 20%; pest or weed control at 500 g/ha ([5]; post-emergence, Postemergence): 50%; pest or weed control at 125 g/ha ([5]; pre-emergence, Preemergence): 40%; pest or weed control at 500 g/ha ([5]; pre-emergence, Preemergence): 100%; plant injury at 125 g/ha ([6]; post-emergence, Postemergence): 60%; plant injury at 500 g/ha ([6]; post-emergence, Postemergence): 90%; plant injury at 125 g/ha ([6]; pre-emergence, Preemergence): 10%; plant injury at 500 g/ha ([6]; pre-emergence, Preemergence): 40%"
